This note sets out measurements from patent US20230364119A1, “AUTOPHAGY ACTIVATOR” (Resonac Corporation, priority 2020, published 2023).

Holding throughout (format): cell-based
Experiment [1] deals with LC3 gene. Put plainly: LC3 gene expression promoting effect in human senescent fibroblasts (quantitative real-time PCR). The method, then: (§1) Senescent fibroblasts were prepared by the following procedure.
(§2) Normal human fibroblasts (NB1RGB, RIKEN BRC Cell Bank) were cultured until confluent in D-MEM medium (manufactured by Sigma-Aldrich) to which 10% fetal bovine serum (manufactured by MP Biomedicals) was added. Thereafter, the cells were treated with 250 μM aqueous hydrogen peroxide for 2 hours, and cultured for 24 hours in D-MEM medium to which fresh 10% fetal bovine serum was added. The treatment with aqueous hydrogen peroxide and the cell culture operation were repeated three times, and the obtained fibroblasts were used as senescent fibroblasts.
(§3) The prepared senescent fibroblasts were prepared at a seeding density of 10000 cells/cm^2 and cultured for 24 hours in D-MEM medium (manufactured by Sigma-Aldrich) to which 10% fetal bovine serum (manufactured by MP Biomedicals) was added. […]
(§4) Then, using Nucleospin (registered trademark) RNA kit (manufactured by Takara Bio Inc.), RNA was extracted from senescent fibroblasts or normal human fibroblasts in each example, and cDNA was synthesized from the obtained RNA. Next, using this cDNA as a template, by quantitative real-time PCR, the expression level of each gene was quantified using primers (manufactured by Takara Bio Inc.) specific to the LC3 gene, ATG5 gene, and Beclin 1 gene, respectively. […]

In experiment [2] the test system is LC3 gene. Put plainly: LC3 gene expression promoting effect in human neuroblastoma in the presence of amyloid β. The procedure: (§5) In the presence of an autophagy activator, the expression levels of the LC3 gene, ATG5 gene, and Beclin 1 gene in human neuroblastoma (SH-SY5Y; obtained from ATCC) were measured by the following test method, and the effect of promoting the expression of the LC3 gene, ATG5 gene, and Beclin 1 gene by an autophagy activator was evaluated.
(§6) In the following examples and comparative examples, tests were performed by adding amyloid β, which is known to cause a decrease in autophagy in nerve cells, to each medium.
(§7) SH-SY5Y cells were prepared at a seeding density of 10000 cells/cm^2 and cultured for 24 hours in D-MEM medium/Ham's F-12 medium (manufactured by Sigma-Aldrich) to which 10% fetal bovine serum (manufactured by MP Biomedicals) was added. Next, in Example 15, the inositol derivative A dissolved in purified water was added to the medium such that the final concentration of the inositol derivative A was 10-4% (V/V). […]
(§8) Then, using Nucleospin (registered trademark) RNA kit (manufactured by Takara Bio Inc.), RNA was extracted from SH-SY5Y cells in each example, and cDNA was synthesized from the obtained RNA. Next, using this cDNA as a template, by quantitative real-time PCR, the expression level of each gene was quantified using primers (manufactured by Takara Bio Inc.) specific to the LC3 gene, ATG5 gene, and Beclin 1 gene, respectively. […]

The subject of a further experiment is ATG5 gene. In words: ATG5 gene expression promoting effect in human senescent fibroblasts (quantitative real-time PCR). The procedure:
as §1, §2, §3, §4

Another experiment relates to Beclin 1 gene. Put plainly: Beclin 1 gene expression promoting effect in human neuroblastoma in the presence of amyloid β. The procedure: as §5, §6, §7, §8
The mark [3] stands for this setting: 24 hours, 10^−3% (V/V) inositol or inositol derivative A, with the vitamin derivative of the example where added, GAPDH-standardized, Comparative Example 1 (purified water) = 1.00.
The mark [4] stands for this setting: compared to Comparative Example 1 (purified water only).
Where [5] appears, read: SH-SY5Y cells with amyloid β, compared to Reference Example 3 (purified water only, no amyloid β).
[6] abbreviates: SH-SY5Y cells, 20 μM amyloid β present, 48 hours, 10^−3% (V/V) inositol or inositol derivative A, with the vitamin derivative of the example where added, Reference Example 3 (purified water, no amyloid β) = 1.00.

Regarding `O[C@H]1[C@H](O)[C@@H](O)[C@H](O)[C@@H](O)[C@H]1O` [Comparative Example 2, myo-inositol], the “Relative gene expression level LC3” value in the experiment on LC3 gene [1] (setting [3]) is on record as 0.77; with LC3 gene [2] (setting [6]), 1.41. In addition, the entries for the “expression level of the LC3 gene, in words” value in the experiment with LC3 gene [1] (setting [4]) and in the experiment on LC3 gene [2] (setting [5]) were “more decreased” and “slightly increased”, respectively. The “Relative gene expression level ATG5” value in the experiment with ATG5 gene (setting [3]) is on record as 1.21. Moreover, the “expression level of the ATG5 gene, in words” value in the experiment with ATG5 gene (setting [4]) is reported as “more increased”. Besides, the “expression level of the Beclin 1 gene, in words” value in the experiment on Beclin 1 gene (setting [5]) is “slightly increased”. Moreover, the “Relative gene expression level Beclin 1” value in the experiment with Beclin 1 gene (setting [6]) came to 1.31.
